Values quoted from earlier work in US20090247553A1, “Highly Pure Paliperidone or a Pharmaceutically Acceptable Salt Thereof Substantially Free of Keto Impurity” (ACTAVIS GROUP PTC EHF, priority 2008, published 2009).

Legend:
[1] = powder

solubility in 0.1N HCl (0.1N HCl): 2.3 g/100 ml | solubility in ethanol (ethanol): 0.076 g/100 ml | solubility in water (water): 0.003 g/100 ml | hygroscopicity [1]: non-hygroscopic
SMILES: Cc1nc2n(c(=O)c1CCN1CCC(c3noc4cc(F)ccc34)CC1)CCCC2O (racemic) [Paliperidone, (±)-3-[2-[4-(6-fluoro-1,2-benzisoxazol-3-yl)-1-piperidinyl]ethyl]-6,7,8,9-tetrahydro-9-hydroxy-2-methyl-4H-pyrido[1,2-a]pyrimidin-4-one]
